Active and inactive are the calls of the source. The rule behind the calls is not given here.
Assays:
Rattus norvegicus [1] = assay: Effect on thymus weight in Lewis rat with implanted cotton pellets at 10 mg/kg, po bid; type: functional
Rattus norvegicus [2] = assay: Inhibition of granuloma formation in cotton pellet implanted Lewis rat at 19 mg/kg, po bid; type: functional
Rattus norvegicus [3] = assay: Effect on body weight change in Lewis rat with implanted cotton pellets at 10 mg/kg, po bid for 4 days; type: functional
Rattus norvegicus [4] = assay: Effect on plasma glucose level in nonfasted Zucker fatty rat at 30 mg/kg, after 5 days
Rattus norvegicus [5] = assay: Effect on adrenal weight in Lewis rat with implanted cotton pellets at 19 mg/kg, po bid; type: functional
[6] = Volume of distribution at steady state in rat; type: ADME, organism-based; conditions: in vivo, read-out: Vdss
Rattus norvegicus [7] = assay: Inhibition of granuloma formation in cotton pellet implanted Lewis rat at 5.0 mg/kg, po bid; type: functional
Rattus norvegicus [8] = assay: Effect on body weight change in Lewis rat with implanted cotton pellets at 5.0 mg/kg, po bid for 7 days; type: functional
Mus musculus = species: Mus musculus; assay: Inhibition of LPS-induced TNFalpha production in mouse; type: functional
[9] = Plasma clearance in rat; type: ADME, organism-based
Rattus norvegicus [10] = assay: Effect on body weight change in Lewis rat with implanted cotton pellets at 5.0 mg/kg, po bid for 4 days; type: functional
Rattus norvegicus [11] = species: Rattus norvegicus; assay: Transactivation activity of glutamine synthase in rat skeletal muscle cells relative to Dexamethasone; type: cell-based
Rattus norvegicus [12] = assay: Effect on plasma insulin level in Zucker fatty rat at 30 mg/kg, after 5 days
Rattus norvegicus [13] = assay: Effect on body weight change in Lewis rat with implanted cotton pellets at 19 mg/kg, po bid for 7 days; type: functional
Rattus norvegicus [14] = assay: Effect on spleen weight in Lewis rat with implanted cotton pellets at 19 mg/kg, po bid; type: functional
Glucocorticoid receptor = molecular target: T1, Glucocorticoid receptor (Homo sapiens, UniProt P04150)
T1 sequence (P04150 whole entry): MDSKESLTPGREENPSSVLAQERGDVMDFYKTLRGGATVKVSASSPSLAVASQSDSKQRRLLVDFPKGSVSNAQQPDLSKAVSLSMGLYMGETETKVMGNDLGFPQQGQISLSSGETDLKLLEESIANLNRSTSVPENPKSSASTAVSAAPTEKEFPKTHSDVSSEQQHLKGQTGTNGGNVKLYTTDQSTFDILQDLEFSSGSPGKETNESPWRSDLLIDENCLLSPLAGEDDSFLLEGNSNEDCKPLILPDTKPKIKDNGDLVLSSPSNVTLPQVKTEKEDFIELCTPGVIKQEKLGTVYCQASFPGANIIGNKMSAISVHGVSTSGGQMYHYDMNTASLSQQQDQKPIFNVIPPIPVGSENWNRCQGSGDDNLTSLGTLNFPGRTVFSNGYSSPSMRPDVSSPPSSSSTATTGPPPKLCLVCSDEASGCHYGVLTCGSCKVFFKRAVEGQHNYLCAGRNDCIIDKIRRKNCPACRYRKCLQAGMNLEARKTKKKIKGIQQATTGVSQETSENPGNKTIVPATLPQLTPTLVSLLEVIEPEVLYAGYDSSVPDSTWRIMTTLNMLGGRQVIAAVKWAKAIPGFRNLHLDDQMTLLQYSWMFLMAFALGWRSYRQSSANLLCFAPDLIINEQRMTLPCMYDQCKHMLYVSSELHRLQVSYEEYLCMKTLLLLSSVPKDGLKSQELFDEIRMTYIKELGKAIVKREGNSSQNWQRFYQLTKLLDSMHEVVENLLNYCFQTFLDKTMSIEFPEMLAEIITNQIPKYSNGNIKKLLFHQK
Description: Inhibition of human glucocorticoid receptor

Rattus norvegicus [15] = assay: Effect on thymus weight in Lewis rat with implanted cotton pellets at 5.0 mg/kg, po bid; type: functional
Rattus norvegicus [16] = assay: Effect on plasma triglyceride level in Zucker fatty rat at 30 mg/kg, after 5 days
Rattus norvegicus [17] = assay: Effect on body weight change in Lewis rat with implanted cotton pellets at 19 mg/kg, po bid for 4 days; type: functional
Rattus norvegicus [18] = assay: Effect on body weight change in Zucker fatty rat at 30 mg/kg, after 5 days
[19] = Oral bioavailability in rat; type: ADME, organism-based; conditions: in vivo
Rattus norvegicus [20] = assay: Effect on thymus weight in Lewis rat with implanted cotton pellets at 19 mg/kg, po bid; type: functional
[21] = Half life in rat; type: ADME, organism-based; conditions: in vivo
Rattus norvegicus [22] = assay: Effect on spleen weight in Lewis rat with implanted cotton pellets at 5.0 mg/kg, po bid; type: functional
Rattus norvegicus [23] = assay: Effect on body weight change in Lewis rat with implanted cotton pellets at 10 mg/kg, po bid for 7 days; type: functional
Rattus norvegicus [24] = assay: Effect on adrenal weight in Lewis rat with implanted cotton pellets at 10 mg/kg, po bid; type: functional
[25] = molecular target: T2, Interstitial collagenase (Homo sapiens) (UniProt P03956); assay: Inhibition of glucocorticoid-mediated human MMP1 expression in PMA stimulated A549 cells assessed as MMP1 protein level by ELISA relative to Dexamethasone; type: cell-based; parameters: scale not given: the % may be the effect or the level left
T2 sequence (whole entry): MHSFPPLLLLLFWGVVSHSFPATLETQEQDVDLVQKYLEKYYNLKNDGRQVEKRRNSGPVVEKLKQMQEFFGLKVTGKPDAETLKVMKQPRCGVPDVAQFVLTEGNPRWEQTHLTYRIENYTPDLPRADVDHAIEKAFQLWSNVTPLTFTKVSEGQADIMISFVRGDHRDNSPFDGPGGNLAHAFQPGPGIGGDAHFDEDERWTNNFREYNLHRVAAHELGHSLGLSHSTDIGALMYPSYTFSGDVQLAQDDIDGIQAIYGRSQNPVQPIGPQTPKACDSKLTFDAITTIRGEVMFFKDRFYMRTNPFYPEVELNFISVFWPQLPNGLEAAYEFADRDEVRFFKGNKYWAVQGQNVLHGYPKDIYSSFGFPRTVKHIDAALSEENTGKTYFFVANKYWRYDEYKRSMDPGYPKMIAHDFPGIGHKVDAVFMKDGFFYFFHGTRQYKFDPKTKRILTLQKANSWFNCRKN

Progesterone receptor = molecular target: T3, Progesterone receptor (Homo sapiens, UniProt P06401); assay: Inhibition of human progesterone receptor
T3 sequence (P06401 whole entry): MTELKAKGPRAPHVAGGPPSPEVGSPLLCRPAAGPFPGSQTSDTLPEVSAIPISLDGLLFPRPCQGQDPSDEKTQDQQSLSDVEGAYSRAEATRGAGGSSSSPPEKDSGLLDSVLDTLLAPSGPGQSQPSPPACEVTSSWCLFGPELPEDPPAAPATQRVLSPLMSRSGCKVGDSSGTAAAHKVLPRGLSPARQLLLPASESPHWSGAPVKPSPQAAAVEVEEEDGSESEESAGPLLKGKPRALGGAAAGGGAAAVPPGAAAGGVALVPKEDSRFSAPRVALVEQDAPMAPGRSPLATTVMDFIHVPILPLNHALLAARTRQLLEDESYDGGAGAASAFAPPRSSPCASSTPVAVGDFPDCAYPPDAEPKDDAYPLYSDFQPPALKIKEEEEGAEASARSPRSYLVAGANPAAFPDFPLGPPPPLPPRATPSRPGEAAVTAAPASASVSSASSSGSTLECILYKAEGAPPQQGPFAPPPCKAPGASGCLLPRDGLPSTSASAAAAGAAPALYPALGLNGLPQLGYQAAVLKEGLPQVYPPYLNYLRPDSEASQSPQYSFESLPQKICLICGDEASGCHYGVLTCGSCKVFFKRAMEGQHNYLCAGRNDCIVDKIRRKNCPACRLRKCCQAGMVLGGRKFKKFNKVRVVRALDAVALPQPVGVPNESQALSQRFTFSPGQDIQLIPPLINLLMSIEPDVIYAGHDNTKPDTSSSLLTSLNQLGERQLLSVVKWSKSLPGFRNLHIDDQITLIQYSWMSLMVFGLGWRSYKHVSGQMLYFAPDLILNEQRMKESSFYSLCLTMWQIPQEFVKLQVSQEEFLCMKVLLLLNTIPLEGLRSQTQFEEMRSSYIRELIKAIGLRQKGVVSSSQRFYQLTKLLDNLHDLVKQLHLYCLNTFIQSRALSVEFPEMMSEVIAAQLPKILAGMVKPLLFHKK

Rattus norvegicus [26] = assay: Inhibition of granuloma formation in cotton pellet implanted Lewis rat at 10 mg/kg, po bid; type: functional
Rattus norvegicus [27] = assay: Effect on adrenal weight in Lewis rat with implanted cotton pellets at 5.0 mg/kg, po bid; type: functional
Rattus norvegicus [28] = assay: Effect on spleen weight in Lewis rat with implanted cotton pellets at 10 mg/kg, po bid; type: functional
Rattus norvegicus [29] = assay: Effect on adrenal weight in Lewis rat with implanted cotton pellets at 2.5 mg/kg, po bid; type: functional
Rattus norvegicus [30] = assay: Effect on body weight change in Lewis rat with implanted cotton pellets at 6.0 mg/kg, po bid for 4 days; type: functional
Rattus norvegicus [31] = assay: Effect on adrenal weight in Lewis rat with implanted cotton pellets at 1.0 mg/kg, po bid; type: functional
Rattus norvegicus [32] = assay: Effect on thymus weight in Lewis rat with implanted cotton pellets at 1.0 mg/kg, po bid; type: functional
Rattus norvegicus [33] = assay: Effect on body weight change in Lewis rat with implanted cotton pellets at 1.0 mg/kg, po bid for 7 days; type: functional
Rattus norvegicus [34] = assay: Effect on spleen weight in Lewis rat with implanted cotton pellets at 6.0 mg/kg, po bid; type: functional
Rattus norvegicus [35] = assay: Effect on thymus weight in Lewis rat with implanted cotton pellets at 2.5 mg/kg, po bid; type: functional
Rattus norvegicus [36] = assay: Effect on body weight change in Lewis rat with implanted cotton pellets at 1.0 mg/kg, po bid for 4 days; type: functional
Rattus norvegicus [37] = assay: Effect on body weight change in Lewis rat with implanted cotton pellets at 6.0 mg/kg, po bid for 7 days; type: functional
Rattus norvegicus [38] = assay: Inhibition of granuloma formation in cotton pellet implanted Lewis rat at 6.0 mg/kg, po bid; type: functional
Rattus norvegicus [39] = assay: Effect on spleen weight in Lewis rat with implanted cotton pellets at 1.0 mg/kg, po bid; type: functional
Rattus norvegicus [40] = assay: Effect on body weight change in Lewis rat with implanted cotton pellets at 2.5 mg/kg, po bid for 7 days; type: functional
Rattus norvegicus [41] = assay: Effect on adrenal weight in Lewis rat with implanted cotton pellets at 6.0 mg/kg, po bid; type: functional
Rattus norvegicus [42] = assay: Inhibition of granuloma formation in cotton pellet implanted Lewis rat at 2.5 mg/kg, po bid; type: functional
Rattus norvegicus [43] = assay: Inhibition of granuloma formation in cotton pellet implanted Lewis rat at 1.0 mg/kg, po bid; type: functional
Rattus norvegicus [44] = assay: Effect on thymus weight in Lewis rat with implanted cotton pellets at 6.0 mg/kg, po bid; type: functional
Rattus norvegicus [45] = assay: Effect on spleen weight in Lewis rat with implanted cotton pellets at 2.5 mg/kg, po bid; type: functional
Rattus norvegicus [46] = assay: Effect on body weight change in Lewis rat with implanted cotton pellets at 2.5 mg/kg, po bid for 4 days; type: functional

SMILES: CCNC(=O)O[C@]1(C(=O)CO)[C@@H](C)C[C@H]2[C@@H]3CCC4=CC(=O)C=C[C@]4(C)[C@@]3(F)[C@@H](O)C[C@@]21C
- Activity (Rattus norvegicus [1]): 144.9 mg
- inhibition in vivo at 19 mg/kg (Rattus norvegicus [2]): 44.6%
- Activity (Rattus norvegicus [3]): 7.3 g
- Activity (Rattus norvegicus [4]): Active
- Activity (Rattus norvegicus [5]): 30.8 mg
- Vd [6]: 3.22 L/kg
- inhibition in vivo at 5 mg/kg (Rattus norvegicus [7]): 35.6%
- Activity (Rattus norvegicus [8]): 11 g
- ED50 (Mus musculus): 0.1 mg/kg
- clearance [9]: 26 mL/min/kg
- Activity (Rattus norvegicus [10]): 5.9 g
- Activity (Rattus norvegicus [11]): 23.4%
- Activity (Rattus norvegicus [12]): Active
- Activity (Rattus norvegicus [13]): 7.5 g
- Activity (Rattus norvegicus [14]): 305.3 mg
- IC50 (Glucocorticoid receptor): 5.1 nM
- Activity (Rattus norvegicus [15]): 170.7 mg
- Activity (Rattus norvegicus [16]): Active
- Activity (Rattus norvegicus [17]): 5.6 g
- Activity (Rattus norvegicus [18]): Active
- bioavailability [19]: 43%
- Activity (Rattus norvegicus [20]): 119.9 mg
- half-life [21]: 2.2 h
- Activity (Rattus norvegicus [22]): 330.9 mg
- Activity (Rattus norvegicus [23]): 10 g
- Activity (Rattus norvegicus [24]): 36.8 mg
- Activity [25]: 104%
- IC50 (Progesterone receptor): > 1000 nM
- inhibition in vivo at 10 mg/kg (Rattus norvegicus [26]): 33.5%
- Activity (Rattus norvegicus [27]): 39 mg
- Activity (Rattus norvegicus [28]): 311.2 mg

SMILES: C[C@]12C=CC(=O)C=C1CC[C@@H]1[C@@H]2[C@@H](O)C[C@@]2(C)[C@H]1CC[C@]2(O)C(=O)CO [PREDNISOLONE]
- Activity (Rattus norvegicus [29]): 26.9 mg
- Activity (Rattus norvegicus [30]): -3.6 g
- Activity (Rattus norvegicus [31]): 38.7 mg
- Activity (Rattus norvegicus [32]): 219.5 mg
- Activity (Rattus norvegicus [33]): 3 g
- Activity (Rattus norvegicus [34]): 260 mg
- ED50 (Mus musculus): 0.5 mg/kg
- Activity (Rattus norvegicus [35]): 117.8 mg
- Activity (Rattus norvegicus [36]): 1.5 g
- Activity (Rattus norvegicus [37]): -4.1 g
- inhibition in vivo at 6 mg/kg (Rattus norvegicus [38]): 56.2%
- Activity (Rattus norvegicus [39]): 334.7 mg
- Activity (Rattus norvegicus [40]): -0.4 g
- Activity (Rattus norvegicus [41]): 27.9 mg
- inhibition in vivo at 2.5 mg/kg (Rattus norvegicus [42]): 49.3%
- inhibition in vivo at 1 mg/kg (Rattus norvegicus [43]): 37.6%
- Activity (Rattus norvegicus [44]): 104 mg
- Activity (Rattus norvegicus [45]): 266.8 mg
- Activity (Rattus norvegicus [46]): -1 g

From ChEMBL document CHEMBL1156642, “Discovery of betamethasone 17alpha-carbamates as dissociated glucocorticoid receptor modulators in the rat” (Bioorg Med Chem, 2008)
